Laboratory results from patent publication EP2168965A1, “Substituted imidazopyridine, imidazopyrazine, imidazopyridazine and imidazopyrimidine derivatives as melanocortin-4 receptor antagonists” (Santhera Pharmaceuticals (Schweiz) AG, priority 2008, dated 2010).
Where two headings read alike, the source gives them in different places.

Tests used:
hMC-4R [1] = biological target: T1, hMC-4R (Homo sapiens, UniProt P32245); test: Membrane binding assay: competition with fluorescence labeled NDP-alpha-MSH, fluorescence polarization
T1 construct: expressed in transfected cells; host or cells: HEK293 cells (membrane preparations)
Experimental: A membrane binding assay is used to identify competitive inhibitors of fluorescence labeled NDP-alpha-MSH binding to HEK293 cell membrane preparations expressing human melanocortin receptors.
The test compound or unlabeled NDP-alpha-MSH is dispensed at varying concentrations to a 384 well microtiter plate. Fluorescence labeled NDP-alpha-MSH is dispensed at a single concentration, followed by addition of membrane preparations. The plate is incubated for 5 h at room temperature.
The degree of fluorescence polarization is determined with a fluorescence polarization microplate reader.

hMC-4R [2] = biological target: T1, hMC-4R; test: Functional assay: membrane based cAMP fluorescence polarization assay for agonistic activity; type: biochemical; details: read-out: % activation functional assay
[3] = HEK293 cell membrane preparations expressing human melanocortin receptors, 5 h at room temperature, read-out: hMC-4R binding assay IC50

T1 sequence (P32245 whole entry): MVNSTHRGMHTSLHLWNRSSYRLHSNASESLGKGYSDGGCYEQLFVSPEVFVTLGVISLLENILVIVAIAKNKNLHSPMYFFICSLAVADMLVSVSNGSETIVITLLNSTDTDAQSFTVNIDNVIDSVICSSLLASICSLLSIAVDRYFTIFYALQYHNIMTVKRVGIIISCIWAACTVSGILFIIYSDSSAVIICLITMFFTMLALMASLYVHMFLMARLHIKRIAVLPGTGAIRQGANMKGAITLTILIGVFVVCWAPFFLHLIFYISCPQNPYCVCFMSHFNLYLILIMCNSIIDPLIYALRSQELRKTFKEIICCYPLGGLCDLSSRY

Q: CC(C)CCN(CCC(C)C)C(=O)c1ccc2nc(Nc3ncccn3)c(C#CCN3CCCC3)n2c1 [Example 9] was tested. Which IC50 (hMC-4R [1]; [3]) did it give?
A: Its IC50 is 0.1 to 1 µM.

Q: What about the Emax (hMC-4R [2]) of the same compound?
A: Its Emax is -12%.

Q: COc1cccc(N(C)c2nc3ccc(C(=O)N(CCC(C)C)CCC(C)C)cn3c2C#CCN2CCCC2)c1 [Example 14] was tested. Which IC50 (hMC-4R [1]; [3]) did it give?
A: Its IC50 is 0.1 to 1 µM.

Q: And the Emax (hMC-4R [2])?
A: Its Emax is 0%.

Q: For COc1ccc(Nc2nc3ccc(C(=O)N(CCC(C)C)CCC(C)C)cn3c2C#CCN2CCCC2)cc1F [Example 28], which IC50 (hMC-4R [1]; [3]) is on record?
A: Its IC50 is under 0.1 µM.

Q: And the Emax (hMC-4R [2])?
A: The Emax was -12%.

Q: What does the source list for CC(C)CCN(CCC(C)C)C(=O)c1ccc2nc(N(C)c3ccccn3)c(C#CCN3CCCC3)n2c1 [Example 13]?
A: IC50 (hMC-4R [1]; [3]): 0.1 to 1 µM; Emax (hMC-4R [2]): -4%

Q: Which results are given for CC(C)CCN(CCC(C)C)C(=O)c1ccc2nc(-c3ccco3)c(C#CCN3CCCC3)n2c1 [Example 8]?
A: IC50 (hMC-4R [1]; [3]): 0.1 to 1 µM; Emax (hMC-4R [2]): 5%

Q: Which IC50 (hMC-4R [1]; [3]) does the source give for CC(C)CCN(CCC(C)C)C(=O)c1ccc2nc(-c3cc(F)cc(F)c3)c(C#CCN3CCCC3)n2c1 [Example 27] here?
A: Its IC50 is over 1 µM.

Q: What about the Emax (hMC-4R [2]) of the same compound?
A: Its Emax is -3%.

Q: CC(C)CCN(CCC(C)C)C(=O)c1ccc2nc(-c3cnco3)c(C#CCN3CCCC3)n2c1 [Example 5] was tested. Which IC50 (hMC-4R [1]; [3]) did it give?
A: Its IC50 is under 0.1 µM.

Q: What about the Emax (hMC-4R [2]) of the same compound?
A: The Emax was 0%.

Q: For CC(C)CCN(CCC(C)C)C(=O)c1ccc2nc(C#N)c(C#CCN3CCCC3)n2c1 [Example 6], which IC50 (hMC-4R [1]) is on record?
A: Its IC50 is over 1 µM.

Q: And the Emax (hMC-4R [2])?
A: Its Emax is 6%.

Q: Which results are given for COc1cc(F)cc(-c2nc3ccc(C(=O)N(CCC(C)C)CCC(C)C)cn3c2C#CCN2CCCC2)c1 [Example 25]?
A: IC50 (hMC-4R [1]; [3]): > 1 µM; Emax (hMC-4R [2]): -2%

Q: For CC(C)CCN(CCC(C)C)C(=O)c1ccc2nc(-c3cnn(CC4OCCO4)c3)c(C#CCN3CCCC3)n2c1 [Example 15], which IC50 (hMC-4R [1]; [3]) is on record?
A: Its IC50 is under 0.1 µM.

Q: And the Emax (hMC-4R [2])?
A: Its Emax is -4%.

Q: With Cc1n[nH]cc1-c1nc2ccc(C(=O)N(CCC(C)C)CCC(C)C)cn2c1C#CCN1CCCC1 [Example 30] as the compound, how does the IC50 (hMC-4R [1]; [3]) read?
A: The IC50 was 0.1 to 1 µM.

Q: What about the Emax (hMC-4R [2]) of the same compound?
A: Its Emax is 4%.

Q: For CC(C)CCN(CCC(C)C)C(=O)c1ccc2nc(Nc3ccccn3)c(C#CCN3CCCC3)n2c1 [Example 11], which IC50 (hMC-4R [1]; [3]) is on record?
A: Its IC50 is under 0.1 µM.

Q: What about the Emax (hMC-4R [2]) of the same compound?
A: The Emax was -7%.

Q: How did the IC50 (hMC-4R [1]; [3]) turn out when COc1cccc(Nc2nc3ccc(C(=O)N(CCC(C)C)CCC(C)C)cn3c2C#CCN2CCCC2)c1 [Example 12] was run?
A: Its IC50 is under 0.1 µM.

Q: What about the Emax (hMC-4R [2]) of the same compound?
A: The Emax was -3%.

Q: For COc1cccc(-c2nc3ccc(C(=O)N(CCC(C)C)CCC(C)C)cn3c2C#CCN2CCCC2)n1 [Example 32], which IC50 (hMC-4R [1]; [3]) is on record?
A: The IC50 was 0.1 to 1 µM.

Q: What about the Emax (hMC-4R [2]) of the same compound?
A: Its Emax is -4%.

Q: What does the source list for CC(C)CCN(CCC(C)C)C(=O)c1ccc2nc(-c3ccc(F)c(F)c3)c(C#CCN3CCCC3)n2c1 [Example 22]?
A: IC50 (hMC-4R [1]; [3]): 0.1 to 1 µM; Emax (hMC-4R [2]): 0%

Q: Which results are given for CC(C)CCN(CCC(C)C)C(=O)c1ccc2nc(-c3ccc4nccn4c3)c(C#CCN3CCCC3)n2c1 [Example 21]?
A: IC50 (hMC-4R [1]; [3]): < 0.1 µM; Emax (hMC-4R [2]): -12%

Q: How did the IC50 (hMC-4R [1]; [3]) turn out when CC(C)CCN(CCC(C)C)C(=O)c1ccc2nc(-c3ccoc3)c(C#CCN3CCCC3)n2c1 [Example 7] was run?
A: Its IC50 is 0.1 to 1 µM.

Q: And the Emax (hMC-4R [2])?
A: The Emax was 3%.

Q: With COc1cc(Nc2nc3ccc(C(=O)N(CCC(C)C)CCC(C)C)cn3c2C#CCN2CCCC2)ccn1 [Example 19] as the compound, how does the IC50 (hMC-4R [1]; [3]) read?
A: Its IC50 is under 0.1 µM.

Q: And the Emax (hMC-4R [2])?
A: The Emax was -13%.

Q: With CC(C)CCN(CCC(C)C)C(=O)c1ccc2nc(-c3c[nH]nc3C(F)(F)F)c(C#CCN3CCCC3)n2c1 [Example 36] as the compound, how does the IC50 (hMC-4R [1]; [3]) read?
A: The IC50 was 0.1 to 1 µM.

Q: CC(C)CCN(CCC(C)C)C(=O)c1ccc2nc(-c3ccc4nccnc4c3)c(C#CCN3CCCC3)n2c1 [Example 35] was tested. Which IC50 (hMC-4R [1]; [3]) did it give?
A: The IC50 was under 0.1 µM.

Q: What does the source list for COc1ccc(Nc2nc3ccc(C(=O)N(CCC(C)C)CCC(C)C)cn3c2C#CCN2CCCC2)cn1 [Example 20]?
A: IC50 (hMC-4R [1]; [3]): < 0.1 µM; Emax (hMC-4R [2]): -16%

Q: Which results are given for CC(C)CCN(CCC(C)C)C(=O)c1ccc2ncc(C#CCN3CCCC3)n2c1 [Example 2]?
A: IC50 (hMC-4R [1]; [3]): 0.1 to 1 µM; Emax (hMC-4R [2]): 0%

Q: Which IC50 (hMC-4R [1]; [3]) does the source give for CC(C)CCN(CCC(C)C)C(=O)c1ccc2nc(-c3cn[nH]c3)c(C#CCN3CCCC3)n2c1 [Example 17] here?
A: Its IC50 is under 0.1 µM.

Q: What about the Emax (hMC-4R [2]) of the same compound?
A: The Emax was -6%.

Q: Which IC50 (hMC-4R [1]; [3]) does the source give for CC(C)CCN(CCC(C)C)C(=O)c1ccc2nc(C3=CCN(C(=O)OC(C)(C)C)CC3)c(C#CCN3CCCC3)n2c1 [Example 16] here?
A: Its IC50 is over 1 µM.

Q: And the Emax (hMC-4R [2])?
A: The Emax was -11%.

Q: How did the IC50 (hMC-4R [1]) turn out when CCOC(=O)c1nc2ccc(C(=O)N(CCC(C)C)CCC(C)C)cn2c1C#CCN1CCCC1 [Example 1] was run?
A: Its IC50 is 0.1 to 1 µM.

Q: What about the Emax (hMC-4R [2]) of the same compound?
A: The Emax was 0%.

Q: COc1cc(Nc2nc3ccc(C(=O)N(CCC(C)C)CCC(C)C)cn3c2C#CCN2CCCC2)ccc1F [Example 18] was tested. Which IC50 (hMC-4R [1]; [3]) did it give?
A: The IC50 was under 0.1 µM.

Q: And the Emax (hMC-4R [2])?
A: The Emax was -5%.

Q: For CC(C)CCN(CCC(C)C)C(=O)c1ccc2nc(-c3ccc(=O)n(C)c3)c(C#CCN3CCCC3)n2c1 [Example 33], which IC50 (hMC-4R [1]; [3]) is on record?
A: The IC50 was under 0.1 µM.

Q: How did the IC50 (hMC-4R [1]; [3]) turn out when CC(C)CCN(CCC(C)C)C(=O)c1ccc2nc(-c3cnc4c(c3)OCCN4C)c(C#CCN3CCCC3)n2c1 [Example 29] was run?
A: The IC50 was under 0.1 µM.

Q: And the Emax (hMC-4R [2])?
A: Its Emax is -5%.

Q: With COc1ncc(-c2nc3ccc(C(=O)N(CCC(C)C)CCC(C)C)cn3c2C#CCN2CCCC2)cc1F [Example 23] as the compound, how does the IC50 (hMC-4R [1]; [3]) read?
A: Its IC50 is 0.1 to 1 µM.

Q: And the Emax (hMC-4R [2])?
A: Its Emax is -9%.

Q: Which IC50 (hMC-4R [1]; [3]) does the source give for CC(C)CCN(CCC(C)C)C(=O)c1ccc2nc(-c3ccc(C#N)c(F)c3)c(C#CCN3CCCC3)n2c1 [Example 26] here?
A: Its IC50 is 0.1 to 1 µM.

Q: What about the Emax (hMC-4R [2]) of the same compound?
A: The Emax was -4%.

Q: Which results are given for CC(C)CCN(CCC(C)C)C(=O)c1ccc2nc(-c3ccccc3)c(C#CCN3CCCC3)n2c1 [Example 3]?
A: IC50 (hMC-4R [1]; [3]): > 1 µM; Emax (hMC-4R [2]): 0%

Q: How did the IC50 (hMC-4R [1]; [3]) turn out when CC(C)CCN(CCC(C)C)C(=O)c1ccc2nc(C#Cc3ccccc3)c(C#CCN3CCCC3)n2c1 [Example 4] was run?
A: The IC50 was 0.1 to 1 µM.

Q: What about the Emax (hMC-4R [2]) of the same compound?
A: Its Emax is 5%.

Q: CC(C)CCN(CCC(C)C)C(=O)c1ccc2nc(N3CCOCC3)c(C#CCN3CCCC3)n2c1 [Example 10] was tested. Which IC50 (hMC-4R [1]; [3]) did it give?
A: The IC50 was 0.1 to 1 µM.

Q: And the Emax (hMC-4R [2])?
A: Its Emax is 0%.

Q: Which results are given for Cc1cc(-c2nc3ccc(C(=O)N(CCC(C)C)CCC(C)C)cn3c2C#CCN2CCCC2)n(C)n1 [Example 31]?
A: IC50 (hMC-4R [1]; [3]): 0.1 to 1 µM; Emax (hMC-4R [2]): 3%

Q: Which IC50 (hMC-4R [1]; [3]) does the source give for COc1ncc(-c2nc3ccc(C(=O)N(CCC(C)C)CCC(C)C)cn3c2C#CCN2CCCC2)cn1 [Example 34] here?
A: Its IC50 is under 0.1 µM.

Q: How did the IC50 (hMC-4R [1]; [3]) turn out when COc1cc(-c2nc3ccc(C(=O)N(CCC(C)C)CCC(C)C)cn3c2C#CCN2CCCC2)ccc1F [Example 24] was run?
A: Its IC50 is 0.1 to 1 µM.

Q: And the Emax (hMC-4R [2])?
A: The Emax was -2%.
